Test results from ChEMBL document CHEMBL5584231, “Rational design of a new short anticancer peptide with good potential for cancer treatment” (Eur J Med Chem, 2024).
Residues, ends and D or L forms follow the SMILES beside them.

Columns and labels:
HeLa = test: Cytotoxicity against human HeLa cells assessed as inhibition of cell growth incubated for 1 hr by MTT assay; assay type: functional, cell-based
MCF7 = test: Cytotoxicity against human MCF7 cells assessed as inhibition of cell growth incubated for 1 hr by MTT assay; assay type: functional, cell-based; conditions: MCF7, 1 h
[1] = Cytotoxicity against RG cells (unknown origin) assessed as inhibition of cell growth incubated for 1 hr by MTT assay; assay type: functional, cell-based
A549 = test: Cytotoxicity against human A549 cells assessed as inhibition of cell growth incubated for 1 hr by MTT assay; assay type: functional, cell-based; conditions: A549, 1 h
[2] = Cytotoxicity against HK-2 cells assessed as inhibition of cell growth incubated for 1 hr by MTT assay; assay type: toxicity, cell-based; conditions: human
[3] = Therapeutic index, ratio of HC10 for mouse RBC to IC50 for cytotoxicity against human HeLa cells; assay type: toxicity, cell-based; conditions: mouse RBC and HeLa cells, read-out: TI
[4] = Therapeutic index, ratio of HC10 for mouse RBC to IC50 for cytotoxicity against human MCF7 cells; assay type: toxicity, cell-based; conditions: mouse RBC and MCF7 cells, read-out: TI
[5] = Therapeutic index, ratio of HC10 for mouse RBC to IC50 for cytotoxicity against RG cells (unknown origin); assay type: toxicity, cell-based; conditions: mouse RBC and RG cells, read-out: TI
[6] = Therapeutic index, ratio of HC10 for mouse RBC to IC50 for cytotoxicity against human A549 cells; assay type: toxicity, cell-based; conditions: mouse RBC and A549 cells, read-out: TI

| SMILES | IC50 (HeLa) [µM] | IC50 (MCF7) [µM] | IC50 [1] [µM] | IC50 (A549) [µM] | IC50 at 1 h [2] [µM] | selectivity ratio [3] | selectivity ratio [4] | selectivity ratio [5] | selectivity ratio [6] |
| --- | --- | --- | --- | --- | --- | --- | --- | --- | --- |
| CC(C)C[C@H](NC(=O)[C@H](CC(C)C)NC(=O)[C@H](CCCCN)NC(=O)[C@H](CCCCN)NC(=O)[C@H](CC(C)C)NC(=O)[C@H](CC(C)C)NC(=O)[C@H](CCCCN)NC(=O)[C@H](CCCCN)NC(=O)[C@H](CC(C)C)NC(=O)[C@H](CC(C)C)NC(=O)[C@H](CCCCN)NC(=O)[C@H](CCCCN)NC(=O)[C@H](CC(C)C)NC(=O)[C@@H](N)CCC(=O)O)C(N)=O (H-ELKKLLKKLLKKLL-NH2) | 16.3 | 39.9 | 22.5 | 14.7 | 50.8 | 1.58 | 0.647 | 1.15 | 1.75 |
| CC(C)C[C@H](NC(=O)[C@H](CC(C)C)NC(=O)[C@H](CCCCN)NC(=O)[C@H](CCCCN)NC(=O)[C@H](CC(C)C)NC(=O)[C@H](CC(C)C)NC(=O)[C@H](CCCCN)NC(=O)[C@H](CCCCN)NC(=O)[C@H](CC(C)C)NC(=O)[C@H](CC(C)C)NC(=O)[C@H](CCCCN)NC(=O)[C@@H](N)CCCCN)C(=O)N[C@@H](CCCCN)C(N)=O (H-KKLLKKLLKKLLK-NH2) | 20.8 | 108 | 93.3 | 55.4 | 63.9 | 24.1 | 4.61 | 5.36 | 9.03 |
| CC(C)C[C@H](NC(=O)[C@H](CC(C)C)NC(=O)[C@H](CCCCN)NC(=O)[C@H](CCCCN)NC(=O)[C@H](CC(C)C)NC(=O)[C@H](CC(C)C)NC(=O)[C@H](CCCCN)NC(=O)[C@H](CCCCN)NC(=O)[C@H](CC(C)C)NC(=O)[C@H](CC(C)C)NC(=O)[C@H](CCCCN)NC(=O)[C@H](CCCCN)NC(=O)[C@H](CC(C)C)NC(=O)[C@H](CC(C)C)NC(=O)[C@H](CCCCN)NC(=O)[C@@H](N)CCCCN)C(=O)N[C@@H](CCCCN)C(N)=O (H-KKLLKKLLKKLLKKLLK-NH2) | 4.63 | 9.06 | 10.9 | 7.23 | 8.47 | 2.62 | 1.34 | 1.11 | 1.67 |
| CC(C)C[C@H](NC(=O)[C@H](CCCCN)NC(=O)[C@H](CC(C)C)NC(=O)[C@H](CC(C)C)NC(=O)[C@H](CCCCN)NC(=O)[C@H](CCCCN)NC(=O)[C@H](CC(C)C)NC(=O)[C@H](CC(C)C)NC(=O)[C@H](CCCCN)NC(=O)[C@H](CCCCN)NC(=O)[C@H](CC(C)C)NC(=O)[C@H](CC(C)C)NC(=O)[C@H](CCCCN)NC(=O)[C@H](CCCCN)NC(=O)[C@H](CC(C)C)NC(=O)[C@H](CC(C)C)NC(=O)[C@H](CCCCN)NC(=O)[C@@H](N)CCCCN)C(N)=O (H-KKLLKKLLKKLLKKLLKL-NH2) | 3.45 | 5.88 | 9.04 | 5.61 | 15.1 | 1.8 | 1.05 | 0.686 | 1.11 |
| CC(C)C[C@H](NC(=O)[C@H](CCCCN)NC(=O)[C@H](CC(C)C)NC(=O)[C@H](CC(C)C)NC(=O)[C@H](CCCCN)NC(=O)[C@H](CCCCN)NC(=O)[C@H](CC(C)C)NC(=O)[C@H](CC(C)C)NC(=O)[C@H](CCCCN)NC(=O)[C@H](CCCCN)NC(=O)[C@H](CC(C)C)NC(=O)[C@H](CC(C)C)NC(=O)[C@H](CCCCN)NC(=O)[C@@H](N)CCCCN)C(N)=O (H-KKLLKKLLKKLLKL-NH2) | 7.85 | 12.5 | 12.1 | 8.71 | 8.91 | 10.3 | 6.5 | 6.72 | 9.31 |
| CC(C)C[C@H](NC(=O)[C@H](CC(C)C)NC(=O)[C@H](CCCCN)NC(=O)[C@H](CCCCN)NC(=O)[C@H](CC(C)C)NC(=O)[C@H](CC(C)C)NC(=O)[C@H](CCCCN)NC(=O)[C@H](CCCCN)NC(=O)[C@H](CC(C)C)NC(=O)[C@H](CC(C)C)NC(=O)[C@@H](N)CCCCN)C(=O)N[C@@H](CCCCN)C(N)=O (H-KLLKKLLKKLLK-NH2) | 22.2 | 89.7 | 47.2 | 131 | 82.6 | 18.9 | 4.66 | 8.86 | 3.19 |
| CC(C)C[C@H](NC(=O)[C@H](CC(C)C)NC(=O)[C@H](CCCCN)NC(=O)[C@H](CCCCN)NC(=O)[C@H](CC(C)C)NC(=O)[C@H](CC(C)C)NC(=O)[C@H](CCCCN)NC(=O)[C@H](CCCCN)NC(=O)[C@H](CC(C)C)NC(=O)[C@H](CC(C)C)NC(=O)[C@H](CCCCN)NC(=O)[C@H](CCCCN)NC(=O)[C@H](CC(C)C)NC(=O)[C@H](CC(C)C)NC(=O)[C@@H](N)CCCCN)C(=O)N[C@@H](CCCCN)C(N)=O (H-KLLKKLLKKLLKKLLK-NH2) | 3.94 | 7.46 | 6.79 | 3.93 | 7.36 | 2.31 | 1.22 | 1.34 | 2.31 |
| CC(C)C[C@H](NC(=O)[C@H](CCCCN)NC(=O)[C@H](CC(C)C)NC(=O)[C@H](CC(C)C)NC(=O)[C@H](CCCCN)NC(=O)[C@H](CCCCN)NC(=O)[C@H](CC(C)C)NC(=O)[C@H](CC(C)C)NC(=O)[C@H](CCCCN)NC(=O)[C@H](CCCCN)NC(=O)[C@H](CC(C)C)NC(=O)[C@H](CC(C)C)NC(=O)[C@H](CCCCN)NC(=O)[C@H](CCCCN)NC(=O)[C@H](CC(C)C)NC(=O)[C@H](CC(C)C)NC(=O)[C@@H](N)CCCCN)C(N)=O (H-KLLKKLLKKLLKKLLKL-NH2) | 2.68 | 6.19 | 7.88 | 4.06 | 5.35 | 1.2 | 0.517 | 0.406 | 0.787 |
| CC(C)C[C@H](NC(=O)[C@H](CCCCN)NC(=O)[C@H](CC(C)C)NC(=O)[C@H](CC(C)C)NC(=O)[C@H](CCCCN)NC(=O)[C@H](CCCCN)NC(=O)[C@H](CC(C)C)NC(=O)[C@H](CC(C)C)NC(=O)[C@H](CCCCN)NC(=O)[C@H](CCCCN)NC(=O)[C@H](CC(C)C)NC(=O)[C@H](CC(C)C)NC(=O)[C@@H](N)CCCCN)C(N)=O (H-KLLKKLLKKLLKL-NH2) | 8.14 | 10.5 | 11.1 | 9.08 | 9.65 | 6.79 | 5.27 | 4.98 | 6.09 |
| CC(C)C[C@H](NC(=O)[C@H](CC(C)C)NC(=O)[C@H](CCCCN)NC(=O)[C@H](CCCCN)NC(=O)[C@H](CC(C)C)NC(=O)[C@H](CC(C)C)NC(=O)[C@H](CCCCN)NC(=O)[C@H](CCCCN)NC(=O)[C@H](CC(C)C)NC(=O)[C@H](CC(C)C)NC(=O)[C@H](CCCCN)NC(=O)[C@H](CC(C)C)NC(=O)[C@H](CC(C)C)NC(=O)[C@@H](N)CCCCN)C(N)=O (H-KLLKLLKKLLKKLL-NH2) | 11.9 | 58.4 | 34.3 | 15.4 | 28.1 | 0.629 | 0.129 | 0.219 | 0.486 |
| CC(C)C[C@H](NC(=O)[C@H](CC(C)C)NC(=O)[C@H](CCCCN)NC(=O)[C@H](CCCCN)NC(=O)[C@H](CC(C)C)NC(=O)[C@H](CC(C)C)NC(=O)[C@H](CCCCN)NC(=O)[C@H](CCCCN)NC(=O)[C@H](CC(C)C)NC(=O)[C@H](CC(C)C)NC(=O)[C@H](CCCCN)NC(=O)[C@H](CCCCN)NC(=O)[C@H](CCC(=O)O)NC(=O)[C@@H](N)CC(C)C)C(N)=O (H-LEKKLLKKLLKKLL-NH2) | 25.8 | 51.2 | 46.4 | 49.4 | 59.2 | 4.62 | 2.33 | 2.58 | 2.42 |
| CC(C)C[C@H](NC(=O)[C@H](CC(C)C)NC(=O)[C@H](CCCCN)NC(=O)[C@H](CCCCN)NC(=O)[C@H](CC(C)C)NC(=O)[C@H](CC(C)C)NC(=O)[C@H](CCCCN)NC(=O)[C@H](CCCCN)NC(=O)[C@H](CC(C)C)NC(=O)[C@H](CC(C)C)NC(=O)[C@H](CCCCN)NC(=O)[C@H](CCC(=O)O)NC(=O)[C@H](CC(C)C)NC(=O)[C@@H](N)CC(C)C)C(N)=O (H-LLEKLLKKLLKKLL-NH2) | 7.05 | 10.5 | 11.1 | 8.11 | 11 | 0.883 | 0.595 | 0.563 | 0.767 |
| CC(C)C[C@H](NC(=O)[C@H](CC(C)C)NC(=O)[C@H](CCCCN)NC(=O)[C@H](CCCCN)NC(=O)[C@H](CC(C)C)NC(=O)[C@H](CC(C)C)NC(=O)[C@H](CCCCN)NC(=O)[C@H](CCCCN)NC(=O)[C@H](CC(C)C)NC(=O)[C@H](CC(C)C)NC(=O)[C@H](CCC(=O)O)NC(=O)[C@H](CCCCN)NC(=O)[C@H](CC(C)C)NC(=O)[C@@H](N)CC(C)C)C(N)=O (H-LLKELLKKLLKKLL-NH2) | 12.9 | 18.5 | 18.2 | 23.8 | 21.4 | 1.78 | 1.24 | 1.26 | 0.966 |
